Common to all, as to assay type: cell-based
For assay [1], the system named is full thickness human skin. Kind of assay: Skin pigmentation in full thickness human skin organ culture. Particulars: beta arbutin 1% vs vehicle, day 6 of organ culture. From the text: FIG. 2(A) depicts human skin treated with beta arbutin 1% vs negative control (“vehicle”) at day 6 of organ culture.
Beta arbutin (hydroquinone glucoside), a recognized inhibitor of tyrosinase, has been selected as positive control for skin lightening.

Another assay relates to pig skin samples. Kind of assay: Skin pigmentation (melanin, Fontana-Masson staining) in pig skin organ culture. The conditions noted are these: Pietrain dorsal pig skin, 1% w/v topical, re-applied daily. As to the method:
For this experiment, full thickness pig skin has been excised from dorsal part of a pig with 30±5 follicles/cm^2 (age: 8 weeks; weight: 24 kg). The skin samples have been cut under sterile condition in smaller pieces (surface: 4×4; thickness: 3 mm) and placed in a 6 wells plate (two samples per well) over a sterilized cotton immerse in 5 ml of culture medium, incubated at 37° C., 5% CO2, 100% humidity, as described above. Culture medium has been renewed every other day.
Thus, 10 μl of beta arbutin (1% w/v in culture medium) per sample has been added topically and re-applied daily. As negative control, culture medium has been applied topically by following the same experimental procedures as for beta-arbutin. Six pig skin samples have been used for each treatment (i.e. beta arbutin and culture medium).
The pig skin samples were incubated for either 2 or 6 days respectively.
Following organ culture procedure, skin samples have been embedded in cryomedium by using liquid nitrogen. […]
The amount of melanin present in each slide has been evaluated by measuring the areas covered by the black spots, by using the software ImageJ (National Institute of Health, US). […]
The data from all samples of the same experimental group have been pooled and the means ±SEM calculated. The statistical significance (P-value) was been determined by Mann-Whitney U test for nonparametric samples. […]

The subject of assay [2] is hair follicle matrix cells in pig skin organ culture. Kind of assay: Hair follicle matrix cell proliferation (Ki67/DAPI double staining) in pig skin organ culture. The conditions noted are these: 25 ng/ml in culture medium.
Protocol: For this experiment, full thickness skin samples had been excised from dorsal part of a pig with 30±5 follicles/cm^2 (age: 8 weeks; weight: 22 kg).
As a consequence, changes in the proliferation rate of hair follicles matrix cells have been investigated in pig skin organ culture following incubation with recognized modulators of hair growth.
Two different experimental procedures have been investigated:
I. In the first experiment, the pig skin samples had been incubated with the potential modulators from day 0 to day 6.
II. In the second experiment, the skin had been kept in culture until day 14. Then, the skin has been incubated with the potential modulators up day 21.
Following the organ culture procedure, skin samples had been embedded in cryomedium by using liquid nitrogen. Embedded samples had been cut in thin slides (thickness: 7 μm) and were then immunolabelled by performing Ki67/DAPI double staining to detect proliferative cells localized on the bulb region. In particular, while Ki67 labels proliferating cells, DAPI stains all cell nuclei. Quantitative analysis has been performed by using a custom modified version of the software ImageJ (National Institute of Health, US). The data from all samples of the same experimental group have been pooled and the means ±SEM calculated. The statistical significance (P-value) has been determined by Mann-Whitney U test for nonparametric samples. […]

`OC[C@H]1O[C@@H](Oc2ccc(O)cc2)[C@H](O)[C@@H](O)[C@@H]1O` [beta arbutin, hydroquinone glucoside]: in assay [1], the “inhibition of skin pigmentation” value is reported as 31%. In addition, the entries for the “decrease of pigmentation in comparison to the negative control” value in the assay with pig skin samples (after 2 days) and with pig skin samples (after 6 days) were 52.4% and 44.2%, respectively.

B1: transforming growth factor beta 2 (protein, UniProt P61812 303-414, looked up)
Transforming growth factor …: ALDAAYCFRNVQDNCCLRPLYIDFKRDLGWKWIHEPKGYNANFCAGACPYLWSSDTQHSRVLSLYNTINPEASASPCCVSQDLEPLTILYYIGKTPKIEQLSNMIVKSCKCS
For the molecule B1, the “inhibition of hair matrix cell proliferation versus untreated control” value in assay [2] (incubated day 0 to day 6, read at day 6) came out at 24.8%; in assay [2] (incubated day 14 to day 21, read at day 21) it was 36.1%.

The values above are taken from patent US20080138850A1, “Skin Model” (SYMRISE GmbH & Co. KG, priority 2006, published 2008).
